Measurements as given in patent US20180021277A1, “ANTI-VIRULENCE COMPOSITIONS AND METHODS” (priority 2012, published 2018).
Values after ≈ are worked out from the molar mass of the structure shown.

Key:
[1] = tested on: MRSA USA300; type: in vivo, mice; conditions: for improvement of wound healing compared to untreated control: 20 mg/kg on the wound once a day for seven days, wound area day 8; for bacterial burden of the wound vs untreated control: 20 mg/kg once a day for seven days; for bacterial burden of the wound vs untreated control / tissue burden of the wound, average log CFUs ± standard deviation: day 8; for tissue burden of the wound, average log CFUs ± standard deviation: topical twice a day for seven days, cephalothin 30 mg/kg, F19 20 mg/kg, vancomycin 30 mg/kg
[2] = Survival of insect larvae given compound in the absence of bacteria; type: in vivo, Galleria Mellonella; conditions: after 84 h
[3] = target: AgrA-P3 complex (Staphylococcus aureus, UniProt P0A0I7); experiment: Electrophoretic mobility shift assay, AgrA with P3 promoter DNA; conditions: 1 nM P3 DNA, 2 μM AgrA
[4] = tested on: Bacillus anthracis Ames strain; type: cell-based
[5] = tested on: MRSA USA300; experiment: microbe, parasite or virus in culture; type: cell-based, Staphylococcus aureus; conditions: for MIC: Staphylococcus aureus, read-out: minimum inhibitory concentration (MIC), With F19 (1 μg/mL)
[6] = tested on: MRSE Q-15; type: cell-based, Staphylococcus epidermidis
[7] = tested on: Streptococcus pyogenes; type: cell-based
[8] = tested on: MRSA USA300; experiment: Murine MRSA bacteremia/sepsis model

Sequence of AgrA-P3 complex (P0A0I7 whole entry, one chain of several): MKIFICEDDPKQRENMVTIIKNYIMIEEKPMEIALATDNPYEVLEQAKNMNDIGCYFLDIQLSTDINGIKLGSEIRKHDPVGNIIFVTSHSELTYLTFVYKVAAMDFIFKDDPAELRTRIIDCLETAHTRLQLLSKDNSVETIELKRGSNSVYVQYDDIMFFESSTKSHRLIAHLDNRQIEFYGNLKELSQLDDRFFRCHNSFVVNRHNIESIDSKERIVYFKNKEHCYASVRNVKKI

For `CCCCCCc1cc(C(=O)COc2ccc(F)cc2F)c(O)cc1O` [4f-12], the “improvement of wound healing compared to untreated control” value [1] was 79.4%, the “bacterial burden of the wound vs untreated control” value [1] was “no significant difference in the bacterial burden” and the “survival of larvae in the absence of bacteria” value [2] was 80%. The “inhibition of formation of the AgrA-promoter P3 complex (EMSA)” value (from here on “inhibition”) [3] was “inhibit binding of AgrA to its cognate DNA” and the “inhibition” value ([3]; listed as F12) was “inhibit the formation of the AgrA-promoter P3 complex”.

For `C[C@H]1[C@H](NC(=O)/C(=N\OC(C)(C)C(=O)O)c2csc(N)n2)C(=O)N1S(=O)(=O)O` [Aztreonam], the “minimum inhibitory concentration (MIC), antibiotic Alone” value [4] was 256 and the “minimum inhibitory concentration (MIC), With F19 (10 μg/mL)” value [4] was <0.1.

For Penicillin, the “minimum inhibitory concentration (MIC), antibiotic Alone” value ([5]; MRSA USA300) was 135 µg/mL, the “minimum inhibitory concentration (MIC), With F19 (1 μg/mL)” value ([5]; MRSA USA300, with F19 1 μg/mL) was 18 µg/mL and the “minimum inhibitory concentration (MIC), antibiotic Alone” value [6] was 174. The “minimum inhibitory concentration (MIC), With F19 (1 μg/mL)” value [6] was 34.

For `CCOc1ccc2ccccc2c1C(=O)N[C@@H]1C(=O)N2[C@@H]1SC(C)(C)[C@@H]2C(=O)O` [Nafcillin], the “minimum inhibitory concentration (MIC), antibiotic Alone” value ([5]; MRSA USA300) was 60 µg/mL (≈ 145 µM), the MIC [5] was 1 µg/mL (≈ 2.41 µM) and the “minimum inhibitory concentration (MIC), antibiotic Alone” value ([7]; alone) was 25. For the same molecule, the “minimum inhibitory concentration (MIC), With F19 (1 μg/mL)” value ([7]; with F19 1 μg/mL) was 10.

In the case of `CC(C)(O/N=C(\C(=O)N[C@@H]1C(=O)N2C(C(=O)[O-])=C(C[n+]3ccccc3)CS[C@H]12)c1csc(N)n1)C(=O)O` [Cefazidime], the “minimum inhibitory concentration (MIC), antibiotic Alone” value [4] is reported as 32 and the “minimum inhibitory concentration (MIC), With F19 (10 μg/mL)” value [4] is reported as <0.1.

In the case of `CN[C@H](CC(C)C)C(=O)N[C@H]1C(=O)N[C@@H](CC(N)=O)C(=O)N[C@H]2C(=O)N[C@H]3C(=O)N[C@H](C(=O)N[C@H](C(=O)O)c4cc(O)cc(O)c4-c4cc3ccc4O)[C@H](O)c3ccc(c(Cl)c3)Oc3cc2cc(c3O[C@@H]2O[C@H](CO)[C@@H](O)[C@H](O)[C@H]2O[C@H]2C[C@](C)(N)[C@H](O)[C@H](C)O2)Oc2ccc(cc2Cl)[C@H]1O` [Vancomycin, vancomycin], the “tissue burden of the wound, average log CFUs ± standard deviation” value [1] is reported as 6.96±0.3 log CFU, the “bacterial load in blood compared to the F19-cephalothin treatment” value ([8]; 30 mg/kg IP twice daily) is reported as “almost two orders of magnitude lower” and the “surviving mice (of ten per group)” value ([8]; 30 mg/kg IP twice daily for 7 days, lethal dose 1.6×10^10 CFUs) is reported as “all survived”. For the same molecule, the “mean bacterial load in blood compared to vehicle-treated animals” value ([8]; 30 mg/kg IP twice daily, day 6) was “four orders of magnitude lower”.

For `CC(=O)OCC1=C(C(=O)O)N2C(=O)[C@@H](NC(=O)Cc3cccs3)[C@H]2SC1` [Cephalothin, cephalothin], the “tissue burden of the wound, average log CFUs ± standard deviation” value [1] was 7.54±0.4 log CFU, the “minimum inhibitory concentration (MIC), antibiotic Alone” value ([5]; MRSA USA300) was 58 µg/mL (≈ 146 µM) and the MIC [5] was 2 µg/mL (≈ 5.04 µM). The “minimum inhibitory concentration (MIC), antibiotic Alone” value [6] was 64, the “minimum inhibitory concentration (MIC), With F19 (1 μg/mL)” value [6] was 3 and the “bacterial burden in blood compared to F19-treated animals” value ([8]; 30 mg/kg IP twice daily) was “approximately the same bacterial burden levels”.

With `CCCCCCc1cc(C(=O)COc2cccc(F)c2)c(O)cc1O` [4f-1] the “improvement of wound healing compared to untreated control” value [1] was 46.6%, the “bacterial burden of the wound vs untreated control” value [1] was “no significant difference in the bacterial burden” and the “inhibition” value ([3]; listed as F1) was “inhibit the formation of the AgrA-promoter P3 complex”.
